Data on six compounds can be found in PMC5797111, “Molecular and Functional Characterization of pheromone binding protein 1 from the Oriental Fruit Moth, Grapholita molesta (Busck)” (Scientific Reports, 2018).

The target of assay [1] is T1, GmolPBP1 (Grapholita molesta, UniProt A0A2R4SBD6). Description: 1-NPN fluorescence binding (titration, Scatchard plot). The note with it: 2 μM GmolPBP1 in 20 mM Tris-HCl pH 7.4, 1-NPN 2–16 μM; read-out: dissociation constant of the GmolPBP1/1-NPN complex. On the procedure:
(§1) To understand the binding properties of the GmolPBP1 with four sex pheromone components of G. molesta and the Codlemone of C. pomonella. We expressed and purified the protein (Figure S1). Then, a competitive binding assay was performed with 1-NPN as the fluorescence probe. The probe was excited at 337 nm and emission spectra were recorded between 370 and 500 nm. The fluorescent intensity of the 1-NPN alone was fairly low, then a strong blue shift, and peaked at about 410 nm with the presence of GmolPBP1. The intensity of this peak was used to determine the dissociation constant of the GmolPBP1/1-NPN complex.
Emission fluorescence spectra were performed on an F-4600 fluorescence Spectrophotometer (Hitachi, Japan) in a 1 cm light path quartz cuvette with 10 nm slit width for both excitation and emission. The excitation wavelength was set at 337 nm and emission spectra were recorded between 370 and 500 nm. […] The fluorescence intensities at the maximum fluorescence emission between 370 and 500 nm were plotted against the concentrations of added 1-NPN. […] The concentrations of bound 1-NPN were evaluated from the values of fluorescence intensity assuming that the protein was 100% active with a stoichiometry of 1:1 (protein: ligand) at saturation. […]

In assay [2] the target is T1, GmolPBP1. The assay can be described thus: Fluorescence competitive binding assay with 1-NPN as probe. The note with it: for IC50 / Ki: 1-NPN and GmolPBP1 both at 2 μM; for IC50 / binding affinity to GmolPBP1 (in words): ligands 1 to 10 μM; for IC50: read-out: IC50 (ligand concentration displacing half of the initial fluorescence intensity of the GmolPBP1/1-NPN complex); for Ki: calculated from the IC50 value, read-out: Ki (dissociation constant); for binding affinity to GmolPBP1 (in words): displacement of 1-NPN. On the procedure: as §1
The displacement of 1-NPN by different sex pheromone components was measured for GmolPBP1 in the competitive binding assy. These ligands included the four sex pheromone components of G. molesta (Z)-8-dodecenyl acetate, (E)-8-dodecenyl acetate, (Z)-8-dodecenyl alcohol and 1-dodecanol as well as the C. pomonella Codlemone. […] The dissociation constants for these three compounds are 1.73 ± 0.31, 2.25 ± 0.63 and 1.88 ± 0.25 μM, respectively.
Emission fluorescence spectra were performed on an F-4600 fluorescence Spectrophotometer (Hitachi, Japan) in a 1 cm light path quartz cuvette with 10 nm slit width for both excitation and emission. The excitation wavelength was set at 337 nm and emission spectra were recorded between 370 and 500 nm. The fluorescent probe N-phenyl-1-naphthylamine (1-NPN) and the ligands used in the binding assay were dissolved in spectrophotometric-grade methanol to yield a 1-mM stock solution (for the sources of these chemicals, see Table S1). To determine the dissociation constant between 1-NPN and GmolPBP1, 2 μM GmolPBP1 dissolved in 20 mM Tris-HCl pH 7.4 was titrated with 1 mM 1-NPN to final concentrations of 2–16 μM. The fluorescence intensities at the maximum fluorescence emission between 370 and 500 nm were plotted against the concentrations of added 1-NPN. The curve was linearized using Scatchard plots. The concentrations of bound 1-NPN were evaluated from the values of fluorescence intensity assuming that the protein was 100% active with a stoichiometry of 1:1 (protein: ligand) at saturation. The affinities of the selected ligands were measured by competitive binding assays by adding the ligands from 1 to 10 μM into the 1-NPN/GmolPBP1 solution (both at 2 μM). The emission spectra were recorded between 370 and 500 nm and the maximum fluorescence intensities were plotted against the ligand concentrations after normalization relative to the intensity at zero ligand. For these competitor ligands, the dissociation constants were computed from the corresponding IC50 values using the quation: Ki = [IC50]/(1 + [1-NPN]/K1-NPN), where [1-NPN] is the free concentration of 1-NPN and K1-NPN is the dissociation constant of the protein complex/1-NPN. All values reported were collected in three independent measurements.

Assay [3] concerns CpomPBP2. Also noted: method as in PMID 27491022, PMID 27709920. The conditions noted are these: cited from earlier work.
For assay [4], the system named is CpomPBP1. On the set-up: method as in PMID 27491022, PMID 27709920. The conditions noted are these: cited from earlier work.
The test system of assay [5] is male G. molesta. On the set-up: method as in earlier work. The conditions noted are these: added to blend of (Z)-8-dodecenyl acetate (85.5%), (E)-8-dodecenyl acetate (5.5%) and (Z)-8-dodecenyl alcohol (9%); cited from earlier work.
For assay [6], the target named is GmolPBP2. Also noted: method as in doi:10.1016/S2095-3119(13)60686-3. The conditions noted are these: cited from earlier work.

T1 sequence (A0A2R4SBD6 entry or part of it): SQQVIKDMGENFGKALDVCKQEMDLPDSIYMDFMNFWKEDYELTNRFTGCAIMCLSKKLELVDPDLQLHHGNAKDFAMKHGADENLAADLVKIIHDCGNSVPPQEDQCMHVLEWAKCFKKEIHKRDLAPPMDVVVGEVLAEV

As to `c1ccc(Nc2cccc3ccccc23)cc1` [1-NPN, N-phenyl-1-naphthylamine], the Kd in assay [1] was 2410 ± 250 nM.
`CCC/C=C\CCCCCCCO` [(Z)-8-dodecenyl alcohol]: in assay [2], the IC50 is 2460 ± 430 nM, the inhibitory constant (Ki) was 1730 ± 310 nM and the “binding affinity to GmolPBP1 (in words)” value is on record as “strong affinity”.
With `C/C=C/C=C/CCCCCCCO` [Codlemone, E, E-8, 10-Dodecadienol], in assay [3], the “affinity to CpomPBP2 (in words)” value was “poor affinity”. Further, the “affinity to CpomPBP1 (in words)” value in assay [4] is “strong affinity”. Further, in assay [2], the IC50 was found to be 2660 ± 350 nM, the inhibition constant Ki is 1880 ± 250 nM and the “binding affinity to GmolPBP1 (in words)” value is on record as “strong affinity”. Besides, in assay [5], the “increase of trap catches of male G. molesta over the G. molesta blend alone” value was “two- to three-fold”.
In the case of `CCCCCCCCCCCCO` [1-dodecanol], in assay [2], the IC50 amounted to 3200 ± 890 nM, the Ki was 2250 ± 630 nM and the “binding affinity to GmolPBP1 (in words)” value is given as “strong affinity”.
As for `CCC/C=C\CCCCCCCOC(C)=O` [(Z)-8-dodecenyl acetate], the Ki in assay [6] is 1090 ± 40 nM. Besides, the “binding affinity to GmolPBP1 (in words)” value in assay [2] is reported as “could not displace half of the total 1-NPN”.
For `CCC/C=C/CCCCCCCOC(C)=O` [(E)-8-dodecenyl acetate], the Ki in assay [6] is 1100 ± 50 nM. Also, the “binding affinity to GmolPBP1 (in words)” value in assay [2] is reported as “could not displace half of the total 1-NPN”.

As a reminder, the Ki is a measure of affinity in units of concentration, obtained from inhibition or displacement.
